{"source": "patent US20060252731A1", "about": "“Methods of treating recurrent aphthous stomatitis” (priority 2005, published 2006)", "key": {"[1]": {"assay": "Plasma concentration of COL-3 in humans", "format": "in vivo", "conditions": "dose of about 10 to about 20 mg/day", "experimental": "A preferred COL is 6-demethyl-6-deoxy-4-de(dimethylamino)tetracycline (COL-3). COL-3 is administered in doses of up to about 200 mg/day, preferably about 150 mg/day, more preferably about 100 mg/day, or in amounts that result in plasma concentrations of up to about 50 μg/ml, about 40 μg/ml or about 30 μg/ml. For example, a dose of about 10 to about 20 mg/day of COL-3 produces plasma concentrations in humans of about 1.0 μg/ml."}, "aphthous ulcers": {"test_system": "aphthous ulcers", "conditions": "continuous systemic treatment, antimicrobial amounts; cited from earlier work"}, "[2]": {"test_system": "minor aphthous ulceration", "assay": "Clinical study of SDD versus placebo for relief of symptoms of aphthous ulceration", "format": "in vivo, human", "conditions": "for number of ulcers / pain associated with ulcers: 20 mg twice a day, vis-à-vis placebo group", "experimental": "The objective of this study was to evaluate the clinical effects of a 20 mg dose of doxycycline administered twice daily (i.e., a sub-antibacterial dose of doxycycline, “SDD”) vis-à-vis a placebo administered twice daily for the relief of symptoms of aphthous ulceration.\nThe study was a single center, placebo-controlled, double-bind, parallel group study. The study participants were fifty patients of an oral medicine clinic. The participants were screened to identify any known predisposing factors prior to the study.\nThe participants were administered SDD or placebo for three months. The participants were permitted to use any additional ulcer management therapies as needed. The participants kept daily diaries to record pain caused by ulcers using the Visual Analogue Scale (VAS), and to record the number of new ulcers each day. The VAS quantified pain over a continuum represented by a horizontal line 100 mm in length.\nAt the baseline, the oral soft tissues and ulcer count were evaluated in each of the participants. The ulcer history of each participant was taken. At the third month, oral soft tissues and ulcer count were reevaluated.\nOf the 50 participants, 25 were administered SDD; and 25 were administered placebo. Of the 50 participants, 32 were females, 18 were males; and 49 were Caucasian, and one was Asian. Thirty-three participants completed the study. Of these participants, 16 were in the SDD group and 17 were in the placebo group."}}}
{"compound": "NC(=O)C1=C(O)C[C@@H]2C[C@@H]3Cc4cccc(O)c4C(=O)C3=C(O)[C@]2(O)C1=O", "note": "[COL-3, 6-demethyl-6-deoxy-4-de(dimethylamino)tetracycline]", "values": [{"measurement": "plasma concentrations in humans", "setting": "[1]", "result": "about 1.0 μg/ml"}]}
{"compound": "CN(C)[C@@H]1C(O)=C(C(N)=O)C(=O)[C@@]2(O)C(O)=C3C(=O)c4c(O)cccc4[C@@](C)(O)[C@H]3C[C@@H]12", "note": "[tetracycline, Tetracycline]", "values": [{"measurement": "remission phases of aphthous ulcers", "setting": "aphthous ulcers", "result": "long remission phases"}]}
{"compound": "doxycycline hyclate [SDD]", "values": [{"measurement": "treatment of RAS", "setting": "[2]; 20 mg doxycycline twice daily for three months", "result": "effectively treated RAS"}, {"measurement": "Mean number of ulcers present at month 3", "setting": "[2]; 20 mg doxycycline twice daily for three months, placebo group 1.24, P >0.05", "result": 0.69}, {"measurement": "Mean number of days using additional treatments", "setting": "[2]; 20 mg doxycycline twice daily for three months, placebo group 13.4, P >0.05", "result": 11.5}, {"measurement": "Mean total number of new ulcers in 3 months", "setting": "[2]; 20 mg doxycycline twice daily for three months, placebo group 35, P >0.05(0.07)", "result": 17}, {"measurement": "number of ulcers", "setting": "[2]", "result": "fewer ulcers"}, {"measurement": "pain associated with ulcers", "setting": "[2]", "result": "less pain"}, {"measurement": "number of ulcers", "setting": "[2]; listed as doxycycline hyclate", "result": "significant reduction"}, {"measurement": "pain associated with ulcers", "setting": "[2]; listed as doxycycline hyclate", "result": "significant reduction"}, {"measurement": "Mean cumulative VAS (mm)", "setting": "[2]; pain by Visual Analogue Scale, daily diaries over three months, placebo group 1435, P >0.05", "result": 901, "unit": "mm"}]}
